Test results reported in patent US12679839B2, “Cyclin-dependent kinase 7 (CDK7) non-covalent inhibitors” (JANSSEN PHARMACEUTICA NV, priority 2020, dated 2026).

Tested on: RNA polymerase II Serine 5 phosphorylation (Rpb1 CTD), downstream substrate of CDK7
Assay: Imaging-based cellular RNA PolII Ser5 phosphorylation assay in A549 cells
Format: cell-based, human
Details: challenged with compound for 3 hours; for IC50: Homo sapiens, A549, 3 h, read-out: pRNA polII Ser5 (A549) pIC50 (converted)
From the text: Dosing curves were fitted using the following equation to obtain IC50: Y=Bottom+(Top−Bottom)/(1+10^((log IC50−X)*Hill slope)) where X=log10 of the compound concentration; top and bottom can be defined by PC and NC respectively. Imaging-Based Cellular RNA PolII Ser5 Phosphorylation Assay
To evaluate inhibition of CDK7 kinase activity, a 384-well automated imaging assay was used. This assay detects Serine 5 phosphorylation on a unique heptapeptide sequence in the C-terminal domain of Rpb1 subunit of RNA polymerase II, the downstream substrate of CDK7. This heptapeptide sequence is repeated up to 52 times in the CTD of Rpb1.
A549 adenocarcinoma human alveolar basal epithelial cells (ATCC, CCL-185), rabbit Phospho-Rpb1 CTD (Ser5) antibody (D9N51 (Cell Signaling Technology)), DMEM (Sigma), Fetal Bovine Serum (Biowest), L-glutamine (Sigma), Penicillin/Streptomycin (Life Technologies), Sodium Pyruvate (Sigma), Hepes (Sigma), poly-D-lysine coated μclear 384 black plates (Greiner), formaldehyde (PolySciences), D-PBS (Sigma), Methanol (Sigma), Alexa Fluor 488 goat anti rabbit IgG secondary antibody (Life Technologies), HCS CellMask™ Deep Red stain (Life Technologies), Hoechst 33258 (Invitrogen).
RNA Polymerase II Serine 5 phosphorylation was detected using a specific rabbit Phospho-Rpb1 CTD (Ser5) antibody. A549 adenocarcinoma human alveolar basal epithelial cells were seeded in 20 μl medium (DMEM supplemented with 1% Fetal Bovine Serum (heat inactivated 30′ 56° C.), 2 mM L-glutamine, 50 U/ml penicillin 50 μg/ml streptomycin, 1 mM sodium pyruvate and 50 mM hepes) at 1000 cells/well and cultured in poly-D-lysine coated μclear 384 black plates for 20 hours at 37° C. and 5% CO2.
After incubation cells were challenged with compound for 3 hours at 37° C. and 5% CO2. DMSO was used as high control and as low control 10 μM of LDC4297 reference compound was used. 40 nl of test compounds and controls were spotted in cell plates using Echo Liquid Handler (Echo 550, Labcyte). Incubation was followed by 20 minutes fixation with 20 μl 10% formaldehyde at room temperature. Medium/formaldehyde solution was removed, plates were washed 3 times with 30 μl D-PBS (w/o Ca^2+ and Ma^2+) and permeabilization was done by adding 20 μl ice cold methanol for 20 minutes. Cells were washed again 3 times with 30 μl D-PBS and 20 μl blocking buffer (25 ml fetal bovine serum in 500 ml D-PBS) was added for 1 hour.
After removing blocking buffer 20 μl 1/1000 primary antibody rabbit. Phospho-Rpb1 CTD (Ser5) antibody was added which binds to the phosphorylated Serine5 of the heptapeptide sequences in the CTD of Rpb1. Primary antibody was removed, and plates were washed 3 times with 30 μl D-PBS followed by addition of 20 μl 1/2000 Alexa Fluor 488 goat anti rabbit IgG secondary antibody for final detection of Phospho-Rpb1 CTD (Ser5) together with 1/5000 HCS CellMask™ Deep Red stain for membrane staining and 1/5000 Hoechst 33258 for nucleus staining. Last, plates were washed 2 times with 30 μl D-PBS and wells were filled with 40 μL D-PBS, plates were sealed (Thermowell sealing tape) and stored at 4° C. until reading. Plates were read with Opera Phenix (Perkin Elmer) with 10× air objective. Data were calculated and analyzed in Phaedra.
IC50 values were calculated using the following formula:
Average value of all HC's and all LC's are used for normalizations. % Effect=100−(sample−LC)/(HC−LC)×100% Control=(sample/HC)×100
A best-fit curve is fitted by a minimum sum of squares method to the plot of % Control vs. compound concentration. From this an IC50 value can be obtained. An estimate of the slope of the plot in terms of the Hill coefficient is also obtained.

Compound	IC50	pRNA polII Ser5 (A549) pIC50
CC(C)N1CC[C@H](C(=O)N2Cc3nc(NC4CCOCC4)ncc3C[C@H]2C)[C@@H](c2ccccc2)C1 (single isomer, unassigned) [Compound 157]	178 nM	
C[C@@H]1Cc2cnc(N[C@H]3CCOC4(CCCC4)C3)nc2CN1C(=O)[C@H]1CCN(C)C[C@@H]1c1ccccc1 (relative stereo) [Compound 16]	40.7 nM	
C[C@H]1Cc2cnc(NC3CCOCC3)nc2[C@H](C)N1C(=O)[C@H]1CCN(C)C[C@@H]1c1ccccc1 [Compound 196]	776 nM	
Cc1cccc([C@H]2CN(C)CC[C@@H]2C(=O)N2Cc3nc(Nc4ccnc(C)c4)ncc3C[C@H]2C)c1 [Compound 135]	~20.4 nM	
[2H]C([2H])([2H])c1cccc([C@H]2CN(C)CC[C@@H]2C(=O)N2Cc3nc(NCc4ccn(C)n4)ncc3C[C@H]2C)c1 (relative stereo) [Compound 100]	~26.3 nM	
[2H]C([2H])([2H])c1cccc([C@@H]2CN(C)CC[C@H]2C(=O)N2Cc3nc(NCc4ccn(C)n4)ncc3C[C@H]2C)c1 (relative stereo) [Compound 99]	603 nM	
C[C@@H]1Cc2cnc(NCc3ccn(C)n3)nc2CN1C(=O)[C@H]1CCN(C)C[C@@H]1c1cccc(C(F)F)c1 (relative stereo) [Compound 124]	~44.7 nM	
[2H]C([2H])([2H])c1cccc([C@@H]2CN(C)CC[C@H]2C(=O)N2Cc3nc(Nc4cnn(C)c4)ncc3C[C@H]2C)c1 (relative stereo) [Compound 97]		6.23
C[C@@H]1Cc2cnc(Nc3cnn(CC4CC4)c3)nc2CN1C(=O)[C@H]1CCN(C)C[C@@H]1c1ccccc1 [Compound 80]	18.6 nM	
CC(C)Oc1cccc([C@H]2CN(C)CC[C@@H]2C(=O)N2Cc3nc(NCc4ccn(C)n4)ncc3C[C@H]2C)c1 (relative stereo) [Compound 138b]	182 nM	
C[C@@H]1CN(C)CC[C@H]1C(=O)N1Cc2nc(NCc3ccn(C)n3)ncc2C[C@H]1C (relative stereo) [Compound 147]	813 nM	
C[C@@H]1Cc2cnc(NCc3ccn(C)n3)nc2CN1C(=O)[C@H]1CCN(C)C[C@@H]1c1cccc(C2CC2)c1 (relative stereo) [Compound 121]	< 2.45 nM	
[2H]C([2H])([2H])c1cccc([C@@H]2CN(C)CC[C@H]2C(=O)N2Cc3nc(Nc4cnn(C)c4)ncc3C[C@H]2C)c1 (relative stereo) [Compound 98]		~7.6
Cc1nn(C)cc1Nc1ncc2c(n1)CN(C(=O)[C@H]1CCN(C)C[C@@H]1c1ccccc1)[C@H](C)C2 [Compound 86]	447 nM	
CO[C@H]1CC[C@H](Nc2ncc3c(n2)CN(C(=O)[C@H]2CCN(C)C[C@@H]2c2ccccc2)C(C)(C)C3)CC1 (single isomer, unassigned) [Compound 190]	240 nM	
Cc1cccc([C@@H]2CN(C)CC[C@H]2C(=O)N2Cc3cc(Nc4cnn(C)c4)ncc3C[C@@H]2C)c1 (single isomer, unassigned) [Compound 179]	~83.2 nM	
C[C@@H]1Cc2cnc(Nc3cnn(CC(F)F)c3)nc2CN1C(=O)[C@H]1CCN(C)C[C@@H]1c1ccccc1 [Compound 85]	~30.9 nM	
Cc1c(Nc2ncc3c(n2)CN(C(=O)[C@H]2CCN(C)C[C@@H]2c2ccccc2)[C@H](C)C3)cnn1C [Compound 87]	661 nM	
C[C@@H]1Cc2cnc(NCc3ccn(C)n3)nc2CN1C(=O)[C@@H]1CCN(C)C[C@H]1c1cccc(C(F)F)c1 (relative stereo) [Compound 123]	2400 nM	
C[C@@H]1Cc2cnc(Nc3cnn(C4CCCC4)c3)nc2CN1C(=O)[C@H]1CCN(C)C[C@@H]1c1ccccc1 [Compound 88]	28.8 nM	
C[C@@H]1Cc2cnc(NC3CCOCC3)nc2CN1C(=O)[C@H]1CCN(C2COC2)C[C@@H]1c1ccccc1 (single isomer, unassigned) [Compound 159]	> 10000 nM	
CCO[C@H]1CC[C@H](Nc2ncc3c(n2)CN(C(=O)[C@H]2CCN(C)C[C@@H]2c2ccccc2)[C@H](C)C3)CC1 [Compound 19]	41.7 nM	
